Laboratory results from ChEMBL document CHEMBL1201862, “PubChem BioAssay data set” (2004).
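A five-concentration, 48-hour dose response in 96-well plates underlies each endpoint, interpolated linearly between surrounding concentrations. The concentration for 50% growth inhibition is given as GI50.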 Activity calls are given as the source filed them. Rule as the data show it: active = GI50 up to about 1.1 µM and inactive = higher. Residues, ends and D or L forms follow the SMILES beside them. *: point of attachment. Boc = CC(C)(C)OC(=O)*

How the values were obtained:
Experiment in all cases: NCI anticancer screen, dose series, 48 h
NCI-H460 = test system: NCI-H460
RXF 393 = test system: RXF 393
SF-268 = test system: SF-268
MOLT-4 = test system: MOLT-4
SF-539 = test system: SF-539
SK-MEL-28 = test system: SK-MEL-28
LOX IMVI = test system: LOX IMVI
CAKI-1 = test system: CAKI-1
KM12 = test system: KM12
SR = test system: SR
SW-620 = test system: SW-620
OVCAR-8 = test system: OVCAR-8
TK-10 = test system: TK-10
SNB-19 = test system: SNB-19
NCI-H226 = test system: NCI-H226
HCC 2998 = test system: HCC 2998
NCI/ADR-RES = test system: NCI/ADR-RES
PC-3 = test system: PC-3
Hs-578T = test system: Hs-578T
T47D = test system: T47D

Compound | GI50 (NCI-H460) | GI50 (RXF 393) | GI50 (SF-268) | GI50 (MOLT-4) | GI50 (SF-539) | GI50 (SK-MEL-28) | GI50 (LOX IMVI) | GI50 (CAKI-1) | GI50 (KM12) | GI50 (SR) | GI50 (SW-620) | GI50 (OVCAR-8) | GI50 (TK-10) | GI50 (SNB-19) | GI50 (NCI-H226) | GI50 (HCC 2998) | GI50 (NCI/ADR-RES) | GI50 (PC-3) | GI50 (Hs-578T) | GI50 (T47D)
Cc1cc(N(CCC#N)CCC#N)ccc1/C(Sc1ccccc1)=C(\NC(=O)/C=C/c1ccccc1)C(=O)Sc1ccccc1 | 7.01 µM (inactive) | 1.56 µM (inactive) | 0.565 µM (active) | 0.557 µM (active) | 1.47 µM (inactive) | 4.99 µM (inactive) | 0.83 µM (active) | 2.05 µM (inactive) | 3.14 µM (inactive) | 0.665 µM (active) | 4.12 µM (inactive) | 2.94 µM (inactive) | 5.35 µM (inactive) | 9.84 µM (inactive) | 2.56 µM (inactive) | 11.4 µM (inactive) |  |  |  | 
Cc1nc(N)nc(N)c1CCCCc1ccccc1 | 3.32 µM (inactive) | 11.1 µM (inactive) | 11 µM (inactive) | 5.3 µM (inactive) | 10.7 µM (inactive) | > 10 µM (inactive) | 5.83 µM (inactive) | 23.4 µM (inactive) | 18.1 µM (inactive) | 13.3 µM (inactive) | 13.7 µM (inactive) | 8.2 µM (inactive) | 43.2 µM (inactive) | 32.4 µM (inactive) |  | 10.7 µM (inactive) |  |  |  | 
COc1cc2c(cc1OC)CC(=O)c1cc(OC)c(OC)cc1/C=C\2 | > 12.5 µM (inactive) | > 12.5 µM (inactive) | > 12.5 µM (inactive) | 9.93 µM (inactive) | > 12.5 µM (inactive) | > 12.5 µM (inactive) | > 12.5 µM (inactive) | > 12.5 µM (inactive) | 4.55 µM (inactive) |  | 6.37 µM (inactive) | > 12.5 µM (inactive) | > 12.5 µM (inactive) | > 12.5 µM (inactive) | > 12.5 µM (inactive) |  | > 12.5 µM (inactive) | > 12.5 µM (inactive) | > 12.5 µM (inactive) | 
O=C1C2=C(N[C@@H](c3ccccc3)[C@H](c3ccccc3)N2)C(=O)c2ccccc21 | > 100 µM (inactive) | > 100 µM (inactive) | > 100 µM (inactive) | > 100 µM (inactive) | > 100 µM (inactive) | > 100 µM (inactive) | > 100 µM (inactive) | > 100 µM (inactive) | > 100 µM (inactive) | > 100 µM (inactive) | > 100 µM (inactive) | > 100 µM (inactive) | > 100 µM (inactive) | > 100 µM (inactive) | > 100 µM (inactive) | > 100 µM (inactive) |  |  |  | 
O=c1cc(NCC2CCCCC2)[nH]c(=O)[nH]1 | > 100 µM (inactive) | > 100 µM (inactive) | > 100 µM (inactive) |  | > 100 µM (inactive) | > 100 µM (inactive) | > 100 µM (inactive) |  | > 100 µM (inactive) | > 100 µM (inactive) | > 100 µM (inactive) | > 100 µM (inactive) | > 100 µM (inactive) | > 100 µM (inactive) | > 100 µM (inactive) | > 100 µM (inactive) | > 100 µM (inactive) | > 100 µM (inactive) | > 100 µM (inactive) | 
NC(=S)N/N=C(/CCN1CCCC1)CC(C1=C(O)C2=CCCCC2OC1=O)c1ccccc1 (stereo unspecified) | > 100 µM (inactive) | > 100 µM (inactive) | > 100 µM (inactive) |  | > 100 µM (inactive) |  | > 100 µM (inactive) | > 100 µM (inactive) | > 100 µM (inactive) | 70 µM (inactive) | 37.8 µM (inactive) | > 100 µM (inactive) | > 100 µM (inactive) | > 100 µM (inactive) | > 100 µM (inactive) | > 100 µM (inactive) |  |  |  | 
CCOC(=O)Cn1c(=O)[nH]c(=O)c2c1ncn2Cc1ccccc1 | > 100 µM (inactive) | > 100 µM (inactive) | > 100 µM (inactive) | > 100 µM (inactive) | > 100 µM (inactive) | > 100 µM (inactive) | > 100 µM (inactive) | > 100 µM (inactive) | > 100 µM (inactive) | > 100 µM (inactive) | > 100 µM (inactive) | > 100 µM (inactive) | > 100 µM (inactive) | > 100 µM (inactive) | > 100 µM (inactive) | > 100 µM (inactive) |  |  |  | 
O=[N+]([O-])c1ccc(C2=Nn3cnnc3SC2)o1 | 10.6 µM (inactive) | 18.4 µM (inactive) | 19.6 µM (inactive) | 20 µM (inactive) | 17.6 µM (inactive) | 16.6 µM (inactive) | 2.06 µM (inactive) | > 10 µM (inactive) | 18.3 µM (inactive) | 16.7 µM (inactive) | 12.2 µM (inactive) | 20.1 µM (inactive) | 39.7 µM (inactive) | 29 µM (inactive) | 26.4 µM (inactive) | 15.8 µM (inactive) |  |  |  | 
O/N=C1/C(=C/c2ccc(OCc3ccccc3)cc2)CCCC1C(NO)c1ccc(OCc2ccccc2)cc1 (stereo unspecified) | 14.2 µM (inactive) | 3.42 µM (inactive) |  | 5.6 µM (inactive) | 24.9 µM (inactive) | 48.4 µM (inactive) | 4.05 µM (inactive) | 5.87 µM (inactive) | 24.2 µM (inactive) | 11.8 µM (inactive) | 17.4 µM (inactive) | 26.7 µM (inactive) |  | 80.9 µM (inactive) | > 100 µM (inactive) | 46 µM (inactive) |  |  |  | 
O=C(Nc1ccc([N+](=O)[O-])cc1[N+](=O)[O-])C(=O)C(C(=O)c1ccc(Cl)c(Cl)c1)C1OC(=O)c2ccccc21 (stereo unspecified) | > 10 µM (inactive) | 11.8 µM (inactive) | 25.3 µM (inactive) | 14.6 µM (inactive) | > 10 µM (inactive) |  | 17.5 µM (inactive) | 38 µM (inactive) | 18.4 µM (inactive) | 26.5 µM (inactive) | 20.6 µM (inactive) | 15.2 µM (inactive) | 32.1 µM (inactive) | 18.6 µM (inactive) | 12.4 µM (inactive) | > 10 µM (inactive) |  |  |  | 
COc1ccc(-c2c3ccccc3c(-c3ccc(OC)cc3)c3ccccc23)cc1 | > 100 µM (inactive) | > 100 µM (inactive) | > 100 µM (inactive) | > 100 µM (inactive) | > 100 µM (inactive) | > 100 µM (inactive) | > 100 µM (inactive) | > 100 µM (inactive) | > 100 µM (inactive) | > 100 µM (inactive) | > 100 µM (inactive) | > 100 µM (inactive) | > 100 µM (inactive) | > 100 µM (inactive) | > 100 µM (inactive) | > 100 µM (inactive) |  |  |  | 
C/C=N\N1C(=O)c2ccccc2C1=O | > 100 µM (inactive) | > 100 µM (inactive) | > 100 µM (inactive) | > 100 µM (inactive) | > 100 µM (inactive) | > 100 µM (inactive) | > 100 µM (inactive) | > 100 µM (inactive) | > 100 µM (inactive) | > 100 µM (inactive) | > 100 µM (inactive) | > 100 µM (inactive) | > 100 µM (inactive) | > 100 µM (inactive) | > 100 µM (inactive) | > 100 µM (inactive) |  |  |  | 
Cc1cccc(CC(Cc2c(C)cccc2C(=O)O)C(=O)O)c1 (stereo unspecified) | > 100 µM (inactive) | > 100 µM (inactive) | > 100 µM (inactive) | > 100 µM (inactive) | > 100 µM (inactive) | > 100 µM (inactive) | > 100 µM (inactive) | > 100 µM (inactive) | > 100 µM (inactive) | > 100 µM (inactive) | > 100 µM (inactive) | > 100 µM (inactive) | > 100 µM (inactive) | > 100 µM (inactive) | > 100 µM (inactive) | 67.6 µM (inactive) | > 100 µM (inactive) | > 100 µM (inactive) | > 100 µM (inactive) | 
CC1OC(n2cc(F)c(=O)[nH]c2=O)C=CC1O (stereo unspecified) | > 100 µM (inactive) | > 100 µM (inactive) | > 100 µM (inactive) | > 100 µM (inactive) | > 100 µM (inactive) | > 100 µM (inactive) | > 43.2 µM (inactive) | > 100 µM (inactive) | > 100 µM (inactive) | > 100 µM (inactive) | > 46 µM (inactive) | > 100 µM (inactive) | > 100 µM (inactive) | > 100 µM (inactive) | > 100 µM (inactive) | > 100 µM (inactive) |  |  |  | 
CNC(=O)OCc1nc([S+](C)[O-])n(C)c1COC(=O)NC (stereo unspecified) | > 100 µM (inactive) | > 100 µM (inactive) | > 100 µM (inactive) | > 100 µM (inactive) | > 100 µM (inactive) | > 100 µM (inactive) | > 100 µM (inactive) | > 58.7 µM (inactive) | > 100 µM (inactive) | > 100 µM (inactive) | > 46.5 µM (inactive) | > 100 µM (inactive) | > 100 µM (inactive) | > 100 µM (inactive) | > 100 µM (inactive) | > 100 µM (inactive) | > 100 µM (inactive) |  |  | 
CCCN(CCC)C(=O)Cc1c2n(c3ccccc13)Cc1ccccc1-2 | 63.7 µM (inactive) | 24.4 µM (inactive) | > 100 µM (inactive) | > 100 µM (inactive) | > 100 µM (inactive) | > 100 µM (inactive) | 83.4 µM (inactive) | 30.1 µM (inactive) | > 100 µM (inactive) | 33.1 µM (inactive) | > 100 µM (inactive) | > 100 µM (inactive) | > 100 µM (inactive) | > 100 µM (inactive) | > 100 µM (inactive) | > 100 µM (inactive) |  |  |  | 
COC(=O)C(Cc1c[nH]c2ccccc12)NC(=O)C(Cc1c[nH]c2ccccc12)NC(=O)C(Cc1c[nH]c2ccccc12)NC(=O)C(Cc1c[nH]c2ccccc12)NC(=O)OC(C)(C)C (stereo unspecified) (Boc-WWWW-OMe; configuration not given here) | 24.9 µM (inactive) |  | 28.2 µM (inactive) | 3.85 µM (inactive) |  | 18.2 µM (inactive) | 12.7 µM (inactive) | 44.3 µM (inactive) |  | 4.51 µM (inactive) | 6.07 µM (inactive) | 26.9 µM (inactive) | 34.7 µM (inactive) | 31.9 µM (inactive) | 45.7 µM (inactive) | 20.5 µM (inactive) |  | 19.5 µM (inactive) |  | 19.7 µM (inactive)
